pIC50: −log10 of the molar value. Where two headings read alike, the source gives them in different places.

This assay relates to IL-1β production in PMA-differentiated THP-1 cells. Nature of the assay: IL-1β production in PMA-differentiated THP-1 cells stimulated with gramicidin (hTHP-1 assay, 2% fetal bovine serum; Procedures 1-3). Format: cell-based, human. In a few lines: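 PMA-primed THP-1 cells (20 ng/ml PMA, 16-18 h) in RPMI with 2% FBS were pre-incubated with compounds for 1 h, from 100 μM downward in 3-fold steps (0.37% DMSO final), then stimulated with 5 μM gramicidin for 2 h. IL-1β in the supernatant was quantified by HTRF.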

[1] abbreviates: Homo sapiens, THP-1, hTHP-1 assay containing 2% fetal bovine serum, Table B2, class symbols, read-out: IC50.
The mark [2] stands for this setting: Homo sapiens, THP-1, Table B1, hTHP-1 assay containing 2% fetal bovine serum, gramicidin stimulation, IL-1β readout, read-out: hTHP-1 IC50 (average).
[3] abbreviates: Table B1, hTHP-1 assay containing 2% fetal bovine serum, gramicidin stimulation, IL-1β readout, read-out: hTHP-1 IC50 (average).
[4] abbreviates: hTHP-1 assay containing 2% fetal bovine serum, Table B2, class symbols, read-out: IC50.

As to `N[S@@](=O)(=NC(=O)Nc1c2c(cc3c1CCC3)CCC2)c1ccc([C@@H]2CCCN2)s1` [Compound 921c], under setting [1], the pIC50 – broadly, the IC50 on a negative log10 scale, so that one unit is a factor of ten – was 5.30 to 6.00.
The same measure, in the same setting: the figure for `N[S@](=O)(=NC(=O)Nc1c2c(cc3c1CCC3)CCC2)c1ccc([C@@H]2CCCN2)s1` [Compound 921d] is 6.00 to 6.70; for `NS(=O)(=NC(=O)Nc1c2c(cc3c1CCC3)CCC2)c1ccc([C@H]2CCCN2)s1` (some centres unmarked) [Compound 921e] it is 6.00 to 6.70.
For `CC(C)(O)c1ncc(S(N)(=O)=NC(=O)Nc2c3c(cc4c2CCC4)CCC3)s1` (centres unmarked) [Example 4, N′-(1,2,3,5,6,7-hexahydro-s-indacen-4-ylcarbamoyl)-2-(2-hydroxypropan-2-yl)thiazole-5-sulfonimidamide], the negative-log IC50 (pIC50) under setting [2] is […].
Same read-out and setting: for `CC(C)(O)c1ncc(S(N)(=O)=NC(=O)Nc2c3c(c(F)c4c2CCC4)CCC3)s1` (centres unmarked) [Example 44, N′-(8-fluoro-1,2,3,5,6,7-hexahydro-s-indacen-4-ylcarbamoyl)-2-(2-hydroxypropan-2-yl)thiazole-5-sulfonimidamide] the value was […]; for `CC(C)(O)c1csc(S(N)(=O)=NC(=O)Nc2c3c(cc4c2CCC4)CCC3)c1` (centres unmarked) [Example 74, N′-(1,2,3,5,6,7-hexahydro-s-indacen-4-ylcarbamoyl)-4-(2-hydroxypropan-2-yl)thiophene-2-sulfonimidamide], […]; for `CC(C)(O)c1csc(S(N)(=O)=NC(=O)Nc2c3c(cc4c2CCC4)CCC3)n1` (centres unmarked) [Example 77, N′-(1,2,3,5,6,7-hexahydro-s-indacen-4-ylcarbamoyl)-4-(2-hydroxypropan-2-yl)thiazole-2-sulfonimidamide], […].
As to `CC(C)(O)c1ncc([S@](N)(=O)=NC(=O)Nc2c3c(cc4c2CC4)CCC3)s1` [Example 224, (R)-2-(2-hydroxypropan-2-yl)-N′-((2,4,5,6-tetrahydro-1H-cyclobuta[f]inden-3-yl)carbamoyl) thiazole-5-sulfonimidamide], under setting [3], the pIC50 is 7.40 to 8.10.
On the same count and under the same terms, for `CC(C)(O)c1ncc(S(N)(=O)=NC(=O)Nc2c3c(cc4c2CC4)CCC3)s1` [Example 225, (R)- and (S)-2-(2-hydroxypropan-2-yl)-N′-((2,4,5,6-tetrahydro-1H-cyclobuta[f]inden-3-yl)carbamoyl)thiazole-5-sulfonimidamide] the value was 5.30 to 6.00; for `CNS(=O)(=NC(=O)Nc1c2c(cc3c1CCC3)CCC2)c1cnc(C(C)(C)O)s1` (centres unmarked) [Example 247, N′-((1,2,3,5,6,7-hexahydro-s-indacen-4-yl)carbamoyl)-2-(2-hydroxypropan-2-yl)-N-methylthiazole-5-sulfon-imidamide], 4.52 to 5.30.
Still for that read-out and setting: for `CC(c1ccc(S(N)(=O)=NC(=O)Nc2c3c(cc4c2CCC4)CCC3)cc1)N(C)C` (centres unmarked) [Example 266, 4-(1-(Dimethylamino)ethyl)-N′-(1,2,3,5,6,7-hexahydro-s-indacen-4-ylcarbamoyl)-benzenesulfonimidamide] the value was 6.70 to 7.40.
The same measure, in the same setting: for `CC1CCc2c1cc1c(c2NC(=O)N=S(N)(=O)c2cnc(C(C)(C)O)s2)CCC1` (centres unmarked) [Example 291, 2-(2-Hydroxypropan-2-yl)-N′-((1-methyl-1,2,3,5,6,7-hexahydro-s-indacen-4-yl)-carbamoyl)thiazole-5-sulfon-imidamide] the value was 6.70 to 7.40.
In the case of `COC(C)(C)c1ncc(S(N)(=O)=NC(=O)Nc2c3c(cc4c2CCC4)CCC3)s1` (centres unmarked) [Example 295, N′-((1,2,3,5,6,7-hexahydro-s-indacen-4-yl)carbamoyl)-2-(2-methoxypropan-2-yl)-thiazole-5-sulfonimidamide], under setting [2], the pIC50 is 6.70 to 7.40.
As to `CC(C)(O)c1csc(S(N)(=O)=NC(=O)Nc2c3c(cc4c2CCC4=O)CCC3)c1` (centres unmarked) [Example 434, 4-(2-Hydroxypropan-2-yl)-N′-((1-oxo-1,2,3,5,6,7-hexahydro-s-indacen-4-yl)carbamoyl)thiophene-2-sulfonimidamide], the pIC50 under setting [1] is 6.00 to 6.70.
Same read-out and setting: the figure for `CC(C)(O)c1ncc(S(N)(=O)=NC(=O)Nc2cc3c(c4c2CCC4=O)CCC3)s1` (centres unmarked) [Example 435, 2-(2-hydroxypropan-2-yl)-N′-((1-oxo-1,2,3,6,7,8-hexahydro-as-indacen-4-yl)carbamoyl)thiazole-5-sulfonimidamide] is 4.52 to 5.30.
Consider `CC(O)(CO)c1ncc(S(N)(=O)=NC(=O)Nc2c3c(cc4c2CCC4)CCC3)s1` (centres unmarked) [Example 436, 2-(1,2-Dihydroxypropan-2-yl)-N′-((1,2,3,5,6,7-hexahydro-s-indacen-4-yl)carbamoyl)thiazole-5-sulfonimidamide], for which the pIC50 under setting [4] was 7.40 to 8.10.
On the same count and under the same terms, for `CC(O)(CO)c1ncc(S(N)(=O)=NC(=O)Nc2c3c(c(C#N)c4c2CCC4)CCC3)s1` (centres unmarked) [Example 437, N′-((8-cyano-1,2,3,5,6,7-hexahydro-s-indacen-4-yl)carbamoyl)-2-(1,2-dihydroxypropan-2-yl)thiazole-5-sulfomidamide] the value was 5.30 to 6.00.
For `CC(C)(O)c1cc(F)c(S(N)(=O)=NC(=O)Nc2c3c(cc4c2CCC4=O)CCC3)s1` (centres unmarked) [Example 438, 3-Fluoro-5-(2-hydroxypropan-2-yl)-N′-((1-oxo-1,2,3,5,6,7-hexahydro-s-indacen-4-yl)carbamoyl)thiophene-2-sulfonimidamide], the negative-log IC50 (pIC50) under setting [1] is 6.00 to 6.70.
On the same count and under the same terms, the figure for `CC(C)(O)c1nc(S(N)(=O)=NC(=O)Nc2c3c(cc4c2CCC4)CCC3)cs1` (centres unmarked) [Example 440, N-((1,2,3,5,6,7-hexahydro-s-indacen-4-yl)carbamoyl)-2-(2-hydroxypropan-2-yl)thiazole-4-sulfonimidamide] is 6.00 to 6.70.
Same read-out and setting: for `NS(=O)(=NC(=O)Nc1c2c(cc3c1CCC3)CCC2)c1cnn2c1OC[C@H](O)C2` (stereo partly drawn) [Example 441, (6R)-N′-((1,2,3,5,6,7-hexahydro-s-indacen-4-yl)carbamoyl)-6-hydroxy-6,7-dihydro-5H-pyrazolo[5,1-b][1,3]oxazine-3-sulfonimidamide] the value was 6.00 to 6.70; for `CC(C)n1nc(S(N)(=O)=NC(=O)Nc2c3c(c(C#N)c4c2CCC4)CCC3)cc1CO` (centres unmarked) [Example 442, N′-((8-cyano-1,2,3,5,6,7-hexahydro-s-indacen-4-yl)carbamoyl)-5-(hydroxymethyl)-1-isopropyl-1H-pyrazole-3-sulfonimidamide], 6.00 to 6.70.
For the molecule `CC(O)(CO)c1cc(F)c(S(N)(=O)=NC(=O)Nc2c3c(c(C#N)c4c2CCC4)CCC3)s1` (centres unmarked) [Example 443, N′-((8-cyano-1,2,3,5,6,7-hexahydro-s-indacen-4-yl)carbamoyl)-5-(1,2-dihydroxypropan-2-yl)-3-fluorothiophene-2-sulfonimidamide], the pIC50 under setting [4] is 6.70 to 7.40.
For `NS(=O)(=NC(=O)Nc1c2c(cc3c1CCC3)CCC2)c1ccc(C2CCN2)cc1` (centres unmarked) [Example 444, 4-(Azetidin-2-yl)-N′-((1,2,3,5,6,7-hexahydro-s-indacen-4-yl)carbamoyl)benzenesulfonimidamide], the negative logarithm of the IC50 (pIC50) under setting [1] is 5.30 to 6.00.
Still for that read-out and setting: for `CN[C@H]1COc2c(S(N)(=O)=NC(=O)Nc3c4c(cc5c3CCC5)CCC4)cnn2C1` (stereo partly drawn) [Example 445, (6R)-N′-((1,2,3,5,6,7-hexahydro-s-indacen-4-yl)carbamoyl)-6-(methylamino)-6,7-dihydro-5H-pyrazolo[5,1-b][3]oxazine-3-sulfonimidamide] the value was 6.70 to 7.40; for `CN(C)Cc1ccc(S(N)(=O)=NC(=O)Nc2c3c(cc4c2CC4)CCC3)cc1` (centres unmarked) [Example 446, 4-((Dimethylamino)methyl)-N′-(2,4,5,6-tetrahydro-1H-cyclobuta[f]inden-3-ylcarbamoyl)benzenesulfonimidamide], 6.00 to 6.70.
With `NS(=O)(=NC(=O)Nc1c2c(cc3c1CCC3)CCC2)c1ccc(C2CCCN2)cc1` (centres unmarked) [Example 447, N′-((1,2,3,5,6,7-hexahydro-s-indacen-4-yl)carbamoyl)-4-(pyrrolidin-2-yl)benzenesulfonimidamide], the negative logarithm of the IC50 (pIC50) under setting [4] was 5.30 to 6.00.
In the case of `CNCc1ccc(S(N)(=O)=NC(=O)Nc2c3c(cc4c2CC4)CCC3)cc1` (centres unmarked) [Example 448, 4-((Methylamino)methyl)-N′-((2,4,5,6-tetrahydro-1H-cyclobuta[f]inden-3-yl)carbamoyl)benzenesulfonimidamide], the negative-log IC50 (pIC50) under setting [1] was 5.30 to 6.00.
The same measure, in the same setting: the figure for `CN(C)Cc1ccc(S(N)(=O)=NC(=O)Nc2c3c(cc4c2CC4)CC3)cc1` (centres unmarked) [Example 449, 4-((Dimethylamino)methyl)-N′-(tricyclo[6.2.0.03,6]deca-1,3(6),7-trien-2-ylcarbamoyl)benzenesulfonimidamide] is 5.30 to 6.00.
Same read-out and setting: the figure for `CC(C)(O)c1ncc(S(N)(=O)=NC(=O)Nc2c3c(c(Cl)c4c2CCC4)CCC3)s1` (centres unmarked) [Example 450, N′-((8-chloro-1,2,3,5,6,7-hexahydro-s-indacen-4-yl)carbamoyl)-2-(2-hydroxypropan-2-yl)thiazole-5-sulfonimidamide] is 6.70 to 7.40.
On the same count and under the same terms, for `CNC(C)(C)c1ccc(S(N)(=O)=NC(=O)Nc2c3c(cc4c2CCC4)CCC3)c(F)c1` (centres unmarked) [Example 451, 2-Fluoro-N′-(1,2,3,5,6,7-hexahydros-indacen-4-ylcarbamoyl)-4-(2-(methylamino)propan-2-yl)benzenesulfonimidamideonimidamide] the value was 6.00 to 6.70.
In the case of `COCc1nc(C(C)(C)O)sc1S(N)(=O)=NC(=O)Nc1c2c(c(C#N)c3c1CCC3)CCC2` (centres unmarked) [Example 454, N′-((8-cyano-1,2,3,5,6,7-hexahydro-s-indacen-4-yl)carbamoyl)-2-(2-hydroxypropan-2-yl)-4-(methoxymethyl)thiazole-5-sulfonimidamide], the pIC50 under setting [4] was 6.00 to 6.70.
Same read-out and setting: the figure for `CC(C)(O)c1cnc(S(N)(=O)=NC(=O)Nc2c3c(cc4c2CCC4=O)CCC3)s1` (centres unmarked) [Example 455, 5-(2-Hydroxypropan-2-yl)-N′-((1-oxo-1,2,3,5,6,7-hexahydro-s-indacen-4-yl)carbamoyl)thiazole-2-sulfonimidamide] is 5.30 to 6.00.

These data come from patent US20230051589A1, “COMPOUNDS AND COMPOSITIONS FOR TREATING CONDITIONS ASSOCIATED WITH NLRP ACTIVITY” (Novartis AG, priority 2018, published 2023).
